Structures can show the parent of a compound that is named as a salt.
Key:
Borrelia cultures = experiment: Secondary screening, Borrelia cell viability by BacTiter-Glo Assay; assay type: cell-based, B. burgdorferi; settings: for efficacy (Borrelia cell viability assay): at 0.31 μM, FIG. 1B
Method: FIG. 1 depicts a Borrelia cell viability assay using agents (A) tetraethylthiuram disulfide, doxorubicin hydrochloride, and epirubicin hydrochloride and (B) azlocillin sodium and cephalothin sodium. The results represent mean±SD.
(§1) The Minimum Inhibitory Concentration (MIC) of the small molecules identified through screening was determined by culturing 10^6/ml Borrelia in BSK-II medium with different concentrations (0.3 μM to 160 μM) of drugs. For MIC, 1 ml cultures with respective drugs were grown in 48 well plates in triplicates, wrapped with paraffin film and placed for 72 hours at 33° C. in a humidified CO2 incubator (Forma Scientific, USA) having 5% CO2 and 95% air. Cell proliferation was assessed using bacterial counting chamber (Petroff-Hausser Counter, Horsham, Pa., USA) by phase contrast microscopy. In parallel cell proliferation was also assessed BacTiter-Glo™ Assay. The counting was performed in all the 25 squares of the central grid. The BacTiter-Glo™ Assay was performed by mixing 100 μl of culture in each well with 100 μl of BacTiter-Glo™ reagent (Promega, Madison, Wis., USA). Then, the assay was performed according to the manufacturer's instructions. Luminescence was measured on a Flex station3 micro-plate reader at luminescence 500 ms.
The viability of Borellia cultures was evaluated with BacTiter-Glo™ Assay.

Borrelia [1] = experiment: Determination of Minimum Inhibitory Concentration (MIC); assay type: cell-based, B. burgdorferi; settings: Borreliella burgdorferi; 72 hours, lowest concentration with no motile spirochete by microscopy
Method: as §1
(§2) To confirm the efficacy of the screening MIC and MBC values were evaluated. The MIC is determined as the lowest concentration at which no motile spirochete is observed by microscopy. […] The MBC was determined by sub-culturing 20 μl of the Borrelia cultures grown at different drug concentrations in fresh BSK-II medium for 21 days. The MBC value was determined when no spirochete was observed microscopically in the culture.

Borrelia [2] = experiment: Determination of Minimum Bactericidal Concentration (MBC); assay type: cell-based, B. burgdorferi; settings: Borreliella burgdorferi, 504 h; sub-culture in fresh BSK-II medium for 21 days, no spirochete observed
Method: For determining minimum bactericidal concentration (MBC), 20 μl of the 10^6/ml Borrelia cultures grown in BSK-II medium for 72 hours at different drug concentrations were added to the fresh BSK-II medium and sub-cultured for 3 weeks. After 3 weeks of incubation period, the samples were observed microscopically for motile spirochetes in the culture. The MIC and MBC determinations were done thrice independently.
as §2

[3] = test system: doxycycline-tolerant Borrelia persisters; experiment: Eradication of doxycycline-tolerant Bb persisters; assay type: cell-based, B. burgdorferi; settings: 5 days, after doxycycline 2.5 μM to 40 μM for 3 days, FIG. 3B
Method: So to identify the drugs that kill drug-tolerant Borrelia persisters, 10^6/ml Borrelia in BSK-II medium was treated with concentrations of doxycycline ranging from 2.5 μM to 40 μM for 3 days. The doxycycline-tolerant persisters were treated with 20 μg and 40 μg Azlocillin for 5 days. After 5 days of treatment, the cultures were pelleted, washed and plated on semisolid BSK-II agarose plates for minimum 21 days. The plates were incubated for regrowth and colonies are counted. The study was performed thrice independently.

Bb = settings: C3H mouse model, urinary bladders, heart, ear skin
Method: After the synergy was determined the efficacy of the drugs were studied in vivo in the following way: C3H/HeN mice of 4-6 week old were infected intradermally in the abdominal area with 0.1 ml of BSK-II medium containing 10^5 Bb with a 25G tuberculin syringe. […] Cultures were monitored up to 6 weeks for motile spirochetes using darkfield microscopy.
To evaluate the efficacy of the drugs in vivo, they were tested in a C3H mouse model.

Borrelia isolate CA8 Bss = experiment: Time-kill studies; assay type: cell-based, B. burgdorferi sensu stricto; settings: 1.25 μM, CA8 strain
Method: Time-kill studies were performed with Borrelia isolate CA8 Bss with azlocillin sodium and cefotaxime acid. To determine the rate of antimicrobial activity, 10^6/ml Borrelia cultures were grown in BSK-II medium with drugs at different concentrations. BSK-II medium with no drugs is used as a control. The antibacterial activity was determined by counting bacteria at 24 hours, 48 hours and 72 hours. The experiment was done once with triplicates.

Row | SMILES | MIC (Borrelia [1]) [µM] | MBC (Borrelia [2]) [µM] | other results
1 | CC1(C)S[C@@H]2[C@H](NC(=O)[C@H](NC(=O)N3CCNC3=O)c3ccccc3)C(=O)N2[C@H]1C(=O)O [Azlocillin sodium] | ≤ 3 | ≤ 10 | efficacy (Borrelia cell viability assay) (Borrelia cultures): ~99%; elimination of doxycycline-tolerant Borrelia persisters ([3]; 20 μg): completely eliminated; elimination of doxycycline-tolerant Borrelia persisters ([3]; 40 μg): completely eliminated; elimination of Borrelia infection in vivo (failure to culture live spirochetes from tissues after treatment) (Bb): very effective in eliminating Borrelia infection
2 | Cc1nnc(SCC2=C(C(=O)O)N3C(=O)[C@@H](NC(=O)Cn4cnnn4)[C@H]3SC2)s1 [Cefazolin sodium] | ≤ 3 |  | 
3 | CO/N=C(\C(=O)N[C@@H]1C(=O)N2C(C(=O)O)=C(COC(C)=O)CS[C@H]12)c1csc(N)n1 [Cefotaxime acid] | ≤ 3 | ≤ 10 | decrease of initial Borrelia inoculum, time-kill (Borrelia isolate CA8 Bss): 1 log10-unit; elimination of doxycycline-tolerant Borrelia persisters ([3]; 40 μg): killed the Borrelia persisters completely; elimination of Borrelia infection in vivo (failure to culture live spirochetes from tissues after treatment) (Bb): very effective in eliminating Borrelia infection
4 | CC(=O)OCC1=C(C(=O)O)N2C(=O)[C@@H](NC(=O)Cc3cccs3)[C@H]2SC1 [Cephalothin sodium] | ≤ 3 |  | efficacy (Borrelia cell viability assay) (Borrelia cultures): ~99%
5 | COc1cccc2c1C(=O)c1c(O)c3c(c(O)c1C2=O)C[C@@](O)(C(=O)CO)C[C@@H]3O[C@H]1C[C@H](N)[C@H](O)[C@H](C)O1 [Doxorubicin hydrochloride] | < 1 | < 1.5 | concentration uniformly effective against Bb (Borrelia cultures; BacTiter-Glo Assay, FIG. 1A): 0.625 µM
6 | COc1cccc2c1C(=O)c1c(O)c3c(c(O)c1C2=O)C[C@@](O)(C(=O)CO)C[C@@H]3O[C@H]1C[C@H](N)[C@@H](O)[C@H](C)O1 [Epirubicin hydrochloride] | < 1 | < 1.5 | concentration uniformly effective against Bb (Borrelia cultures; BacTiter-Glo Assay, FIG. 1A): 0.625 µM
7 | CC(=O)[C@]1(O)Cc2c(O)c3c(c(O)c2[C@@H](O[C@H]2C[C@H](N)[C@H](O)[C@H](C)O2)C1)C(=O)c1ccccc1C3=O [Idarubicin HCl] |  | ≤ 10 | 
8 | CC(=O)NC[C@H]1CN(c2ccc(N3CCOCC3)c(F)c2)C(=O)O1 [Linezolide] | ≤ 3 |  | 
9 | CCN(CC)C(=S)SSC(=S)N(CC)CC [Tetraethylthiuram disulfide] | ≤ 3 | ≤ 10 | concentration showing complete Borrelia cell inhibition (Borrelia cultures; BacTiter-Glo Assay, FIG. 1A): 1.25 µM
10 | CO[C@@H]1[C@@H](O[C@@H]2O[C@H](C)[C@@H](O[C@H]3C[C@@](C)(O)[C@@H](OC(=O)CC(C)C)[C@H](C)O3)[C@H](N(C)C)[C@H]2O)[C@@H](CC=O)C[C@@H](C)[C@@H](O)/C=C/C=C/C[C@@H](C)OC(=O)C[C@H]1O [leucomycin] |  | ≤ 10 | 
